# Experimental data: patent US10598672B2, “Methods and compositions for diagnosing and treating loss and/or distortion of taste or smell” (Cyrano Therapeutics, Inc., priority 2014, dated 2020)
# What was measured:
# [1] = tested on: patients with taste dysfunction; experiment: Gustometry: DT, RT, ME (and HR) for NaCl, sucrose, HCl, urea; type: in vivo, human
# Method: Smell and taste functions under each study condition were measured by standardized psychophysical sensory testing techniques. Measurements included determination of detection thresholds (DTs), recognition thresholds (RTs), magnitude estimation (ME), and hedonic response (HR) for 4 odors (i.e., pyridine [dead fish], nitrobenzene [bitter almond], thiophene [petroleum], and amyl acetate [banana oil]) (olfactometry) and for 4 tastants (i.e., sodium chloride [salt], sucrose [sweet], hydrochloride [sour], and urea [bitter]) (gustometry). These techniques have been previously described with olfactometry confirmed in a prior controlled double-blind clinical trial. Each measurement was performed independent of any prior knowledge of response.
# Gustometry measurements included measurements of detection (DT) and recognition (RT) thresholds and magnitude estimation (ME) for four tastants [NaCl (salt), sucrose (sweet), HCl (sour) and urea (bitter)]. Abnormalities of taste function were measured by increased DT or RT above normal (decreased sensitivity) and/or decreased ME (decreased sensitivity) for one or more of the tastants presented.
# [2] = tested on: patients with hyposmia and hypogeusia; experiment: Open-label pilot study oral vs intranasal theophylline: subjective smell and taste function by questionnaire (0-100); type: in vivo, human
# Excerpt: We performed an open-label pilot study in patients with hyposmia and hypogeusia under the following 3 conditions: (1) before treatment, (2) after oral theophylline treatment, and (3) after intranasal theophylline treatment. Under each condition, we performed subjective evaluations of taste or smell functions, quantitative measurements of taste (gustometry) and smell (olfactometry), and measurements of serum theophylline level and body weight.
# Subjective changes in smell and taste function under each study condition were measured by questionnaire before measurements of smell or taste function. Responses were graded on a scale from 0 to 100, with 0 reflecting no subjective response in overall sensory function; 100, return to normal sensory function; and values between 0 and 100 intermediate responses. Overall sensory function was defined as the ability to smell all odors and identify all tastants, although response intensity varied.
# The 10 patients in this intranasal pilot study entered into the previous oral theophylline study according to a protocol approved by the institutional review board of the Georgetown University Medical Center. In this prior trial, oral theophylline was administered daily in 2 divided doses (at breakfast and lunch) of 200, 400, 600, or 800 mg for 2 to 12 months of treatment. Treatment was divided into 2- to 4-month periods, at which time patients returned to The Clinic for measurements of subjective sensory responses, olfactometry, gustometry, serum theophylline level, and body weight. […] In the 10 patients selected for the intranasal pilot study, oral theophylline treatment was discontinued 3 weeks to 4 months before initiation of the intranasal drug trial. At that time, the mean (SEM) serum theophylline level was unmeasurable in any patient (0 [0] mg/L).
# A pilot study of intranasal theophylline treatment was then initiated among these 10 patients. This trial was an investigator initiated phase 1, open-label, single-source, controlled pilot study. Intranasal drug therapy reflected a compassionate trial of a potentially more useful therapeutic method to improve hyposmia (and hypogeusia) than oral theophylline. Before the intranasal trial, risks and benefits were explained and the patients signed an informed consent.
# The intranasal administration device was a calibrated 1 mL syringe fitted with a nozzle that fit comfortably into the anterior naris (Wolfe Tory Medical, Inc.) and loaded under sterile conditions with 20 μg of theophylline methylpropyl paraben in a 0.4-mL saline solution (Foundation Care). Patients were instructed to direct the spray superiorly into the nasal cavity but not posteriorly into the nasopharynx. This technique was practiced before study initiation with sterile saline.
# Each patient delivered the theophylline dose in each naris once daily throughout the study. Patients underwent evaluation 1, 2, and 4 weeks during drug use with the same measurements used for the oral study.
# Values for the oral trial were taken from the last measurements made before discontinuation of oral drug treatment and before initiation of the intranasal trial. This period varied from 2 to 12 months after oral treatment initiation and reflected the maximal improvement in sensory function each patient experienced. Values for the intranasal pilot study were taken from measurements obtained after completion of 4 weeks of intranasal treatment.
# The mean and standard error of the mean for all values obtained at each study condition were compared. Differences were considered significant if P<0.05 by the unpaired t test. Paired comparison tests were also used with differences considered significant if P<0.05 by the t test.
# [3] = TH[…] (81) patients with taste dysfunction, Mean ± SEM
# [4] = after intranasal treatment vs before treatment or after oral treatment
# [5] = after oral treatment vs before treatment
# [6] = after discontinuation of intranasal treatment
smiles,measurement,setting,value
Cn1c(=O)c2[nH]cnc2n(C)c1=O [theophylline],"NaCl DT, Detection Threshold",[1]; [3],3.4 ± 0.2^
same,"NaCl ME, Magnitude Estimation",[1]; [3],58 ± 5
same,"NaCl RT, Recognition Threshold",[1]; [3],3.6 ± 0.2
same,"SCl DT, Detection Threshold",[1]; [3],3.6 ± 0.2
same,"SCl ME, Magnitude Estimation",[1]; [3],54 ± 5
same,"SCl RT, Recognition Threshold",[1]; [3],3.7 ± 0.3
same,"SUCROSE DT, Detection Threshold",[1]; [3],3.3 ± 0.2
same,"SUCROSE ME, Magnitude Estimation",[1]; [3],49 ± 5
same,"SUCROSE RT, Recognition Threshold",[1]; [3],3.6 ± 0.2
same,"UREA DT, Detection Threshold",[1]; [3],3.9 ± 0.3
same,"UREA ME, Magnitude Estimation",[1]; [3],54 ± 5
same,"UREA RT, Recognition Threshold",[1]; [3],3.9 ± 0.3
same,DTs and RTs for all tastants,[1]; [4],lower (more sensitive)
same,HRs for sucrose,[1]; [4],more positive (more pleasant)
same,"Hedonic responses for sodium chloride, hydrochloride, and urea",[1]; [4],more negative (more unpleasant)
same,Magnitude estimations for all tastants,[1]; [4],higher (more intense)
same,"DTs for sucrose and hydrochloride and RTs for sodium chloride, hydrochloride, and urea",[1]; [5],decreased (more sensitive)
same,HR for hydrochloride and urea,[1]; [5],increased (more unpleasant)
same,Magnitude estimations for all tastants,[1]; [5],increased (more sensitive)
same,gustometric functions,"[1]; patients with taste dysfunction, oral treatment",improving gustometric functions
same,patients reporting some persistence of improvement after 10 weeks,[2]; [6],Four
same,patients with loss of smell and taste function after 6 weeks,[2]; [6],2 patients
same,patients with loss of smell and taste function within 1 week of discontinuation,[2]; [6],2 patients
same,earliest improvement measured after starting treatment,[2]; intranasal treatment,1 week
same,improvement measured for taste or smell functions compared with oral treatment,"[2]; intranasal, 4 weeks, subjective",2 fold
same,patients who reported no improvement,"[2]; of 10 patients, intranasal treatment",2 patients
same,patients with improved taste or smell acuity / overall improvement in taste or smell functions,"[2]; of 10 patients, intranasal, 20 μg in each naris once daily, 4 weeks",8 patients
same,patients who reported no improvement,"[2]; of 10 patients, oral treatment",4 patients
same,patients with improved taste or smell acuity / overall increased taste or smell function,"[2]; of 10 patients, oral, 200 to 800 mg/d for 2 to 12 months",6 patients
same,earliest improvement of hyposmia measured after,[2]; oral treatment,2 months
